Measurements: US11986471B2, “Compounds and methods of use” (Tango Therapeutics, Inc., priority 2018, dated 2024)

Assays:
[1] = target: T1, PRMT5 (Homo sapiens, UniProt O14744); test: PRMT5 IC50 assay in the presence of MTA as cofactor; format: biochemical; details: for IC50: PRMT5, MTA as cofactor; for SAM/MTA Ratio: ratio between Ki in the presence of SAM and Ki in the presence of MTA
T1 construct: purchased Viva (custom protein)
How it was run: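 For the SAM-containing format, dividing IC50 by 1.5 yields Ki; for the MTA-containing format the divisor is 13.5. A third format without cofactor gives IC50 alone.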

[2] = target: T1, PRMT5; test: PRMT5 IC50 assay with no cofactor; format: biochemical; details: read-out: No Co-factor IC50
How it was run: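 Values reflect IC50 (μM) on human PRMT5 under three cofactor states. Selectivity is derived as the quotient of SAM-state Ki over MTA-state Ki, with each Ki obtained from its IC50.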

[3] = tested on: HAP1 MTAP-intact; test: SDMA in-cell western assay, HAP1 MTAP-intact cell line; format: cell-based; details: Homo sapiens
How it was run: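 IC50 values come from SDMA in-cell western staining of HAP1 cells. The MTAP-intact line carries endogenous MTAP, while its MTAP-deleted counterpart lacks MTAP entirely. A selectivity ratio of at least 3 fold marks a compound as MTAP-selective.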

[4] = target: T1, PRMT5; test: PRMT5 IC50 assay in the presence of SAM as cofactor; format: biochemical
How it was run: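 IC50 against PRMT5 determined with SAM as cofactor, with no cofactor, and with MTA as cofactor. Ki derived as IC50/1.5 for the SAM assay and IC50/13.5 for the MTA assay; SAM Ki to MTA Ki ratio also reported.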

[5] = tested on: HAP1 MTAP-deleted; test: SDMA in-cell western assay, HAP1 MTAP-deleted cell line; format: cell-based; details: for IC50: Homo sapiens, HAP1 MTAP-deleted cell line; for MTAP Intact/Deleted Ratio: IC50 ratio HAP1 MTAP-intact / HAP1 MTAP-deleted
How it was run: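 Readout is cellular SDMA signal by in-cell western, with IC50 values derived from it. The cells are MTAP-null HAP1, matched to an isogenic MTAP-intact HAP1 line.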

T1 sequence (O14744 whole entry): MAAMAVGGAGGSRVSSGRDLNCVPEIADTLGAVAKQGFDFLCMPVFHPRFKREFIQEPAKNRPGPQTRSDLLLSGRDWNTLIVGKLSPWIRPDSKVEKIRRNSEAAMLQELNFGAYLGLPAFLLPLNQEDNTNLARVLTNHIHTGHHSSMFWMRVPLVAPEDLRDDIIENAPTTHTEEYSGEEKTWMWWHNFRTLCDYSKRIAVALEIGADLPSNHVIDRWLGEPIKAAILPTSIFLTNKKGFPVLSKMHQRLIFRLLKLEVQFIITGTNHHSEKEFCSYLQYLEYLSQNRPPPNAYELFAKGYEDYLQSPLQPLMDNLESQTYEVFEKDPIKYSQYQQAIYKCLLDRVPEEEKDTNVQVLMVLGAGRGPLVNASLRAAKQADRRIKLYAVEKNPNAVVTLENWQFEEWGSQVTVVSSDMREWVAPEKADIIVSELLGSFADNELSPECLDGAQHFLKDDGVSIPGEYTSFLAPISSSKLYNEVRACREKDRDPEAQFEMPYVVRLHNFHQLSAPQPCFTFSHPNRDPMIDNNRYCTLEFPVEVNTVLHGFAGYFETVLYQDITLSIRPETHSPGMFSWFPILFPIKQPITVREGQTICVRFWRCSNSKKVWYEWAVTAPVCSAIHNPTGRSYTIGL
T1 sequence (Q9BQA1 whole entry partner): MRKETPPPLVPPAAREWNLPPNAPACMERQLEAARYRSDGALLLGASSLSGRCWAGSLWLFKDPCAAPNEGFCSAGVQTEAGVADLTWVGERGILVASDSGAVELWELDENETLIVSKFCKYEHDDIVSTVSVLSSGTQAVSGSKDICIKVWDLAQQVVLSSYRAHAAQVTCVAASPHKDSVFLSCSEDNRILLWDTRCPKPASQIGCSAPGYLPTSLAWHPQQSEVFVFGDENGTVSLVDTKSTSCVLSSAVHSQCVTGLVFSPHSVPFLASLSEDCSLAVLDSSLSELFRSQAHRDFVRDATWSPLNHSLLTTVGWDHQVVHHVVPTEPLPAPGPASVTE

SMILES	IC50 [1] [nM]	SAM/MTA Ratio [1]	IC50 [2] [nM]	IC50 [3] [nM]	IC50 [4] [nM]	IC50 [5] [nM]	MTAP Intact/Deleted Ratio [5]
Cc1c(OCc2cn[nH]c2)ccc2c1CCN(C[C@@H](O)CNC(=O)c1ccnc(NC3CCC3)c1)C2 [Compound 254, 2-(cyclobutylamino)-N-[(2S)-2-hydroxy-3-[5-methyl-6-(1H-pyrazol-4-ylmethoxy)-3,4-dihydro-1H-isoquinolin-2-yl]propyl]pyridine-4-carboxamide]	50 to 500	A (a Ki ratio greater than or equal to 10 fold between the Ki in the presence of SAM and the Ki in the presence of MTA)	500 to 5000	1000 to 10000	500 to 5000	1000 to 10000	C* (an IC50 ratio of less than 3 fold between the IC50 in the HAP1 MTAP-intact cell line and the HAP1 MTAP-deleted cell line)
O=C(NC[C@H](O)CN1CCc2c(ccc(OCc3cnco3)c2Br)C1)c1ccnc(NC2CCC2)c1 [Compound 255, N-[(2S)-3-[5-bromo-6-(oxazol-5-ylmethoxy)-3,4-dihydro-1H-isoquinolin-2-yl]-2-hydroxy-propyl]-2-(cyclobutylamino)pyridine-4-carboxamide]	50 to 500	A (a Ki ratio greater than or equal to 10 fold between the Ki in the presence of SAM and the Ki in the presence of MTA)	≥ 5000	≥ 10000	500 to 5000	≥ 10000	C* (an IC50 ratio of less than 3 fold between the IC50 in the HAP1 MTAP-intact cell line and the HAP1 MTAP-deleted cell line)
CC(=O)N1CCC(Nc2cc(C(=O)NC[C@H](O)CN3CCc4c(ccc(OCc5ocnc5C)c4Cl)C3)ncn2)CC1 [Compound 256, (S)-6-((1-acetylpiperidin-4-yl)amino)-N-(3-(5-chloro-6-((4-methyloxazol-5-yl)methoxy)-3N-dihydroisoquinolin-2(1H)-yl)-2-hydroxypropyl)pyrimidine-4-carboxamide]	50 to 500	A (a Ki ratio greater than or equal to 10 fold between the Ki in the presence of SAM and the Ki in the presence of MTA)	≥ 5000	≥ 10000	50 to 500	1000 to 10000	C* (an IC50 ratio of less than 3 fold between the IC50 in the HAP1 MTAP-intact cell line and the HAP1 MTAP-deleted cell line)
CC(=O)N1CCC(Nc2cc(C(=O)NC[C@H](O)CN3CCc4cc(OCc5cnn[nH]5)ccc4C3)ncn2)CC1 [Compound 257, (S)—N-(3-(6-((1H-1,2,3-triazol-5-yl)methoxy)-3,4-dihydroisoquinolin-2(1H)-yl)-2-hydroxypropyl)-6-((1-acetylpiperidin-4-yl)amino)pyrimidine-4-carboxamide]	50 to 500	A (a Ki ratio greater than or equal to 10 fold between the Ki in the presence of SAM and the Ki in the presence of MTA)	≥ 5000	≥ 10000	500 to 5000	1000 to 10000	C* (an IC50 ratio of less than 3 fold between the IC50 in the HAP1 MTAP-intact cell line and the HAP1 MTAP-deleted cell line)
O=C(NC[C@H](O)CN1CCc2c(ccc(OCc3cnco3)c2I)C1)c1ccnc(NC2CCC2)c1 [Compound 258, 2-(cyclobutylamino)-N-[(2S)-2-hydroxy-3-[5-iodo-6-(oxazol-5-ylmethoxy)-3,4-dihydro-1H-isoquinolin-2-yl]propyl]pyridine-4-carboxamide]	500 to 5000	A (a Ki ratio greater than or equal to 10 fold between the Ki in the presence of SAM and the Ki in the presence of MTA)	≥ 5000	≥ 10000	500 to 5000	≥ 10000	C* (an IC50 ratio of less than 3 fold between the IC50 in the HAP1 MTAP-intact cell line and the HAP1 MTAP-deleted cell line)
O=C(NC[C@H](O)CN1CCc2cc(OCc3cnco3)ccc2C1)c1cccc(NC2CCC2)c1 [Compound 259, (S)-3-(cyclobutylamino)-N-(2-hydroxy-3-(6-(oxazol-5-ylmethoxy)-3,4-dihydroisoquinolin 2(1H)-yl)propyl)benzamide]	500 to 5000	A (a Ki ratio greater than or equal to 10 fold between the Ki in the presence of SAM and the Ki in the presence of MTA)	≥ 5000	< 1000	500 to 5000	< 1000	C* (an IC50 ratio of less than 3 fold between the IC50 in the HAP1 MTAP-intact cell line and the HAP1 MTAP-deleted cell line)
Cc1cc(OCc2cnco2)cc2c1CN(C[C@@H](O)CNC(=O)c1ccnc(NC3CCC3)c1)CC2 [Compound 260, 2-(cyclobutylamino)-N-[(2S)-2-hydroxy-3-[8-methyl-6-(oxazol-5-ylmethoxy)-3,4-dihydro-1H-isoquinolin-2-yl]propyl]pyridine-4-carboxamide]	500 to 5000	A (a Ki ratio greater than or equal to 10 fold between the Ki in the presence of SAM and the Ki in the presence of MTA)	≥ 5000	1000 to 10000	500 to 5000	1000 to 10000	C* (an IC50 ratio of less than 3 fold between the IC50 in the HAP1 MTAP-intact cell line and the HAP1 MTAP-deleted cell line)
CC(=O)N1CCC(Nc2cc(C(=O)NC[C@H](O)CN3CCc4c(ccc(OCc5cn[nH]c5)c4Cl)C3)ncn2)CC1 [Compound 261, 6-[(1-acetyl-4-piperidyl)amino]-N-[(2S)-3-[5-chloro-6-(1H-pyrazol-4-ylmethoxy)-3,4-dihydro-1H-isoquinolin-2-yl]-2-hydroxy-propyl]pyrimidine-4-carboxamide]	50 to 500	A (a Ki ratio greater than or equal to 10 fold between the Ki in the presence of SAM and the Ki in the presence of MTA)	500 to 5000	< 1000	50 to 500	1000 to 10000	C* (an IC50 ratio of less than 3 fold between the IC50 in the HAP1 MTAP-intact cell line and the HAP1 MTAP-deleted cell line)
Cc1ncoc1COc1ccc2c(c1)CCN(C[C@@H](O)CNC(=O)c1cccc(NC3COC3)c1)C2 [Compound 262, (S)—N-(2-hydroxy-3-(6-((4-methyloxazol-5-yl)methoxy)-3N-dihydroisoquinolin-2(1H)-yl)propyl)-3-(oxetan-3-ylamino)benzamide]	50 to 500	A (a Ki ratio greater than or equal to 10 fold between the Ki in the presence of SAM and the Ki in the presence of MTA)	≥ 5000	1000 to 10000	500 to 5000	1000 to 10000	C* (an IC50 ratio of less than 3 fold between the IC50 in the HAP1 MTAP-intact cell line and the HAP1 MTAP-deleted cell line)
Cc1nocc1COc1ccc2c(c1C)CCN(C[C@@H](O)CNC(=O)c1ccnc(NC3CCC3)c1)C2 [Compound 263, 2-(cyclobutylamino)-N-[(2S)-2-hydroxy-3-[5-methyl-6-[(3-methylisoxazol-4-yl)methoxy]-3,4-dihydro-1H-isoquinolin-2-yl]propyl]pyridine-4-carboxamide]	500 to 5000	A (a Ki ratio greater than or equal to 10 fold between the Ki in the presence of SAM and the Ki in the presence of MTA)	≥ 5000	≥ 10000	500 to 5000	≥ 10000	C* (an IC50 ratio of less than 3 fold between the IC50 in the HAP1 MTAP-intact cell line and the HAP1 MTAP-deleted cell line)
CC(=O)N1CCC(Nc2cc(C(=O)NC[C@H](O)CN3CCc4c(ccc(OCc5conc5C)c4C)C3)ncn2)CC1 [Compound 264, (S)-6-((1-acetylpiperidin-4-yl)amino)-N-(2-hydroxy-3-(5-methyl-6-((3-methylisoxazol-4-yl)methoxy)-3N-dihydroisoquinolin-2(1H)-yl)propyl)pyrimidine-4-carboxamide]	50 to 500	A (a Ki ratio greater than or equal to 10 fold between the Ki in the presence of SAM and the Ki in the presence of MTA)	≥ 5000	≥ 10000	500 to 5000	≥ 10000	C* (an IC50 ratio of less than 3 fold between the IC50 in the HAP1 MTAP-intact cell line and the HAP1 MTAP-deleted cell line)
Cc1ncoc1COc1cc2c(cc1F)CN(C[C@@H](O)CNC(=O)c1ccnc(NC3CCC3)c1)CC2 [Compound 266, (S)-2-(cyclobutylamino)-N-(3-(7-fluoro-6-((4-methyloxazol-5-yl)methoxy)-3,4-dihydroisoquinolin-2(1H)-yl)-2-hydroxypropyl)isonicotinamide]	50 to 500	A (a Ki ratio greater than or equal to 10 fold between the Ki in the presence of SAM and the Ki in the presence of MTA)	500 to 5000	1000 to 10000	50 to 500	1000 to 10000	B* (an IC50 ratio greater than or equal to 3 fold but lower than 10 fold between the IC50 in the HAP1 MTAP-intact cell line and the HAP1 MTAP-deleted cell line)
Cc1ncoc1COc1ccc2c(c1Br)CCN(C[C@@H](O)CNC(=O)c1ccnc(NC3CCC3)c1)C2 [Compound 267, N-[(2S)-3-[5-bromo-6-[(4-methyloxazol-5-yl)methoxy]-3,4-dihydro-1H-isoquinolin-2-yl]-2-hydroxy-propyl]-2-(cyclobutylamino)pyridine-4-carboxamide]	50 to 500		≥ 5000	≥ 10000	500 to 5000	≥ 10000	C* (an IC50 ratio of less than 3 fold between the IC50 in the HAP1 MTAP-intact cell line and the HAP1 MTAP-deleted cell line)
